Measurements published in ChEMBL document CHEMBL1201862, “PubChem BioAssay data set” (2004).
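The compound was tested at five concentrations on cells cultured in 96-well plates, with a 48-hour exposure period. GI50: concentration for 50% inhibition of growth.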 Active and inactive are the calls of the source. Cut-off read from the data, not from the text of the source: active = GI50 up to about 1.1 µM and inactive = higher.

Columns and labels:
Assay in all cases: growth of human tumour cells (NCI), 48 h
HCT-116 = tested on: HCT-116
RXF 393 = tested on: RXF 393
SNB-75 = tested on: SNB-75
RPMI-8226 = tested on: RPMI-8226
CAKI-1 = tested on: CAKI-1
NCI-H460 = tested on: NCI-H460
UO-31 = tested on: UO-31
SN12C = tested on: SN12C
KM12 = tested on: KM12
MDA-N = tested on: MDA-N
SNB-19 = tested on: SNB-19
COLO 205 = tested on: COLO 205
LOX IMVI = tested on: LOX IMVI
NCI/ADR-RES = tested on: NCI/ADR-RES
MCF7 = tested on: MCF7
OVCAR-3 = tested on: OVCAR-3
SR = tested on: SR
K562 = tested on: K562
EKVX = tested on: EKVX
HCC 2998 = tested on: HCC 2998
Hs-578T = tested on: Hs-578T
SK-MEL-5 = tested on: SK-MEL-5
A498 = tested on: A498
UACC-257 = tested on: UACC-257
SF-295 = tested on: SF-295
U-251 = tested on: U-251
DU-145 = tested on: DU-145
TK-10 = tested on: TK-10
HCT-15 = tested on: HCT-15
BT-549 = tested on: BT-549
UACC-62 = tested on: UACC-62
OVCAR-5 = tested on: OVCAR-5
SW-620 = tested on: SW-620
NCI-H522 = tested on: NCI-H522
SF-268 = tested on: SF-268
HL-60 = tested on: HL-60
ACHN = tested on: ACHN
Malme-3M = tested on: Malme-3M
HT-29 = tested on: HT-29
NCI-H23 = tested on: NCI-H23
SK-MEL-28 = tested on: SK-MEL-28
786-0 = tested on: 786-0
MDA-MB-435 = tested on: MDA-MB-435
HOP-62 = tested on: HOP-62
MDA-MB-231 = tested on: MDA-MB-231
SF-539 = tested on: SF-539
OVCAR-4 = tested on: OVCAR-4
IGROV-1 = tested on: IGROV-1
NCI-H226 = tested on: NCI-H226
SK-MEL-2 = tested on: SK-MEL-2
PC-3 = tested on: PC-3
MOLT-4 = tested on: MOLT-4
OVCAR-8 = tested on: OVCAR-8
A549 = tested on: A549
CCRF-CEM = tested on: CCRF-CEM
HOP-92 = tested on: HOP-92
SK-OV-3 = tested on: SK-OV-3
M14 = tested on: M14

Measured: GI50

CC(C)[C@@H](C)[C@@]1(C)C[C@@H]1[C@@H](C)[C@H]1CC[C@@H]([C@@H]2CC=C3C[C@@H](O)CC[C@]3(C)C2=O)[C@]1(C)CCO
inactive: HCT-116 10.1 µM | RXF 393 3.3 µM | SNB-75 5.66 µM | RPMI-8226 12.2 µM | CAKI-1 12.8 µM | NCI-H460 1.77 µM | UO-31 15.2 µM | SN12C 12.9 µM | KM12 2.82 µM | MDA-N 13.3 µM | SNB-19 12.6 µM | COLO 205 11.9 µM | LOX IMVI 4.57 µM | NCI/ADR-RES 13.4 µM | MCF7 10.9 µM | OVCAR-3 12.8 µM | SR 2.69 µM | K562 3.49 µM | EKVX 12.9 µM | HCC 2998 4.2 µM | Hs-578T 10.3 µM | SK-MEL-5 13.1 µM | A498 15.3 µM | UACC-257 14.3 µM | SF-295 9.2 µM | U-251 11 µM | DU-145 15.3 µM | TK-10 11.5 µM | BT-549 16.6 µM | UACC-62 14.6 µM | OVCAR-5 11.6 µM | SW-620 7.55 µM | NCI-H522 6.9 µM | SF-268 15.5 µM | HL-60 2.11 µM | ACHN 12.5 µM | Malme-3M 14 µM | HT-29 2.58 µM | NCI-H23 14.1 µM | SK-MEL-28 7.53 µM | 786-0 5.53 µM | MDA-MB-435 11.9 µM | HOP-62 17.3 µM | MDA-MB-231 14.8 µM | SF-539 12.6 µM | OVCAR-4 12.1 µM | IGROV-1 15.6 µM | NCI-H226 12.5 µM | SK-MEL-2 18.3 µM | PC-3 10.1 µM | MOLT-4 4.17 µM | OVCAR-8 12.7 µM
5.27 µM: HCT-15

COc1ccc(C2=NN=C3C(c4ccccc4)=Nc4ccccc4N3C2)cc1
inactive: HCT-116 14.6 µM | RXF 393 10.9 µM | A549 35.7 µM | CCRF-CEM 2.16 µM | RPMI-8226 38.8 µM | NCI-H460 22.1 µM | UO-31 6.46 µM | SN12C 27.8 µM | KM12 21.4 µM | MDA-N 49.1 µM | SNB-19 23.8 µM | COLO 205 15.3 µM | LOX IMVI 16.9 µM | NCI/ADR-RES 10.8 µM | MCF7 21.7 µM | OVCAR-3 3.06 µM | SR 3.04 µM | K562 30.8 µM | EKVX > 100 µM | HCC 2998 46.8 µM | HOP-92 85.9 µM | SK-MEL-5 21.3 µM | A498 40.1 µM | UACC-257 27.5 µM | U-251 14.5 µM | DU-145 8.18 µM | TK-10 23.5 µM | BT-549 40 µM | SK-OV-3 80.2 µM | UACC-62 29.2 µM | OVCAR-5 54.2 µM | SW-620 14.9 µM | SF-268 13.6 µM | HL-60 7.55 µM | ACHN 14.1 µM | Malme-3M 25.2 µM | HT-29 20.1 µM | NCI-H23 21 µM | SK-MEL-28 12 µM | 786-0 10.6 µM | MDA-MB-435 27.2 µM | HOP-62 14.8 µM | MDA-MB-231 27.5 µM | M14 15.5 µM | SF-539 28.1 µM | OVCAR-4 6.49 µM | IGROV-1 29.4 µM | NCI-H226 41.6 µM | SK-MEL-2 22.6 µM | PC-3 31.6 µM | MOLT-4 7.05 µM
16.9 µM: HCT-15

COc1cccc(-c2cc(O)c3cc(N)ccc3n2)c1
3.47 µM: HCT-15
inactive: A549 5.94 µM | CCRF-CEM 2.25 µM | SNB-75 2.75 µM | NCI-H460 3.75 µM | SN12C 7.05 µM | KM12 3.62 µM | SNB-19 5.26 µM | COLO 205 4.27 µM | NCI/ADR-RES 2.54 µM | MCF7 3.94 µM | EKVX > 100 µM | HCC 2998 6.55 µM | Hs-578T 2.09 µM | HOP-92 3.44 µM | SK-MEL-5 2.88 µM | TK-10 6.79 µM | BT-549 5.81 µM | SK-OV-3 2.3 µM | UACC-62 2.92 µM | OVCAR-5 > 100 µM | SW-620 1.94 µM | NCI-H522 2.39 µM | ACHN 7.13 µM | Malme-3M 2.14 µM | HT-29 3.22 µM | NCI-H23 9.91 µM | SK-MEL-28 7.62 µM | 786-0 4.05 µM | HOP-62 5.92 µM | MDA-MB-231 25.2 µM | M14 4.63 µM | SF-539 2.35 µM | IGROV-1 5.06 µM | PC-3 2.09 µM | MOLT-4 3.71 µM | OVCAR-8 9.16 µM
active: MDA-MB-435 0.834 µM
